#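 How tested: cells in 96-well plates exposed to compound for 48 hours at five concentrations. GI50 is the concentration that inhibits growth by half. Definition used: TGI = concentration required for complete inhibition of growth.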
# How the values were obtained:
# Assay in all cases: NCI-60 cell line screen, 48 h
# M19-MEL melanoma = tested on: M19-MEL melanoma
# MALME-3M melanoma = tested on: MALME-3M melanoma
# U251 CNS = tested on: U251 CNS
# UACC-62 melanoma = tested on: UACC-62 melanoma
# SK-MEL-28 melanoma = tested on: SK-MEL-28 melanoma
# EKVX NSCLC = tested on: EKVX NSCLC
# NCI-H522 lung = tested on: NCI-H522 lung
# SK-MEL-5 melanoma = tested on: SK-MEL-5 melanoma
# RXF 393 renal = tested on: RXF 393 renal
# HOP-18 NSCLC = tested on: HOP-18 NSCLC
# DMS 114 small cell lung = tested on: DMS 114 small cell lung
# HCC-2998 colon = tested on: HCC-2998 colon
# A498 renal = tested on: A498 renal
# NCI-H460 lung = tested on: NCI-H460 lung
# MOLT-4 leukemia = tested on: MOLT-4 leukemia
# CCRF-CEM leukemia = tested on: CCRF-CEM leukemia
# DMS 273 small cell lung = tested on: DMS 273 small cell lung
# DLD-1 colon = tested on: DLD-1 colon
# KM20L2 colon = tested on: KM20L2 colon
# OVCAR-5 ovarian = tested on: OVCAR-5 ovarian
# K-562 leukemia = tested on: K-562 leukemia
# SK-OV-3 ovarian = tested on: SK-OV-3 ovarian
# SW-620 colon = tested on: SW-620 colon
# SK-MEL-2 melanoma = tested on: SK-MEL-2 melanoma
# SN12C renal = tested on: SN12C renal
# SF-295 CNS = tested on: SF-295 CNS
# TK-10 renal = tested on: TK-10 renal
# SF-268 CNS = tested on: SF-268 CNS
# HOP-92 NSCLC = tested on: HOP-92 NSCLC
# KM12 colon = tested on: KM12 colon
# SNB-78 CNS = tested on: SNB-78 CNS
# UO-31 renal = tested on: UO-31 renal
# HCT-15 colon = tested on: HCT-15 colon
# SR leukemia = tested on: SR leukemia
# SF-539 CNS = tested on: SF-539 CNS
# 786-0 renal = tested on: 786-0 renal
# HOP-62 NSCLC = tested on: HOP-62 NSCLC
# LOX IMVI melanoma = tested on: LOX IMVI melanoma
# ACHN renal = tested on: ACHN renal
# RPMI-8226 leukemia = tested on: RPMI-8226 leukemia
# COLO 205 colon = tested on: COLO 205 colon
# OVCAR-8 ovarian = tested on: OVCAR-8 ovarian
# LXFL 529 NSCLC = tested on: LXFL 529 NSCLC
# UACC-257 melanoma = tested on: UACC-257 melanoma
# HL-60(TB) leukemia = tested on: HL-60(TB) leukemia
# M14 melanoma = tested on: M14 melanoma
# SNB-19 CNS = tested on: SNB-19 CNS
# NCI-H23 lung = tested on: NCI-H23 lung
# OVCAR-3 ovarian = tested on: OVCAR-3 ovarian
# HCT-116 colon = tested on: HCT-116 colon
# A549 NSCLC = tested on: A549 NSCLC
# CAKI-1 renal = tested on: CAKI-1 renal
# HT29 colon = tested on: HT29 colon
# NCI-H226 lung = tested on: NCI-H226 lung
# SNB-75 CNS = tested on: SNB-75 CNS
# OVCAR-4 ovarian = tested on: OVCAR-4 ovarian
# IGROV1 ovarian = tested on: IGROV1 ovarian
smiles,measurement,setting,value
O=C1C2=C(CCCC2)Nc2cccc3ncn1c23,TGI,M19-MEL melanoma,> 100 µM
same,TGI,MALME-3M melanoma,> 100 µM
same,TGI,U251 CNS,> 100 µM
same,TGI,UACC-62 melanoma,> 100 µM
same,TGI,SK-MEL-28 melanoma,> 100 µM
same,TGI,EKVX NSCLC,> 100 µM
same,TGI,NCI-H522 lung,> 100 µM
same,TGI,SK-MEL-5 melanoma,> 100 µM
same,TGI,RXF 393 renal,> 100 µM
same,TGI,HOP-18 NSCLC,> 100 µM
same,TGI,DMS 114 small cell lung,> 100 µM
same,TGI,HCC-2998 colon,> 100 µM
same,TGI,A498 renal,> 100 µM
same,TGI,NCI-H460 lung,> 100 µM
same,TGI,MOLT-4 leukemia,> 100 µM
same,TGI,CCRF-CEM leukemia,> 100 µM
same,TGI,DMS 273 small cell lung,> 100 µM
same,TGI,DLD-1 colon,> 100 µM
same,TGI,KM20L2 colon,> 100 µM
same,TGI,OVCAR-5 ovarian,> 100 µM
same,TGI,K-562 leukemia,> 100 µM
same,TGI,SK-OV-3 ovarian,> 100 µM
same,TGI,SW-620 colon,> 100 µM
same,TGI,SK-MEL-2 melanoma,> 100 µM
same,TGI,SN12C renal,> 100 µM
same,TGI,SF-295 CNS,> 100 µM
same,TGI,TK-10 renal,> 100 µM
same,TGI,SF-268 CNS,> 100 µM
same,TGI,HOP-92 NSCLC,> 100 µM
same,TGI,KM12 colon,> 100 µM
same,TGI,SNB-78 CNS,> 100 µM
same,TGI,UO-31 renal,> 100 µM
same,TGI,HCT-15 colon,> 100 µM
same,TGI,SR leukemia,> 100 µM
same,TGI,SF-539 CNS,> 100 µM
same,TGI,786-0 renal,> 100 µM
same,TGI,HOP-62 NSCLC,> 100 µM
same,TGI,LOX IMVI melanoma,> 100 µM
same,TGI,ACHN renal,> 100 µM
same,TGI,RPMI-8226 leukemia,> 100 µM
same,TGI,COLO 205 colon,> 100 µM
same,TGI,OVCAR-8 ovarian,> 100 µM
same,TGI,LXFL 529 NSCLC,> 100 µM
same,TGI,UACC-257 melanoma,> 100 µM
same,TGI,HL-60(TB) leukemia,> 100 µM
same,TGI,M14 melanoma,> 100 µM
same,TGI,SNB-19 CNS,> 100 µM
same,TGI,NCI-H23 lung,> 100 µM
same,TGI,OVCAR-3 ovarian,> 100 µM
same,TGI,HCT-116 colon,> 100 µM
same,TGI,A549 NSCLC,> 100 µM
Cn1cc2ccccc2c1-c1nc(F)nc(Oc2ccc3c(c2)CC[C@@H]2C3CC[C@@]3(C)C2CC[C@@H]3O)n1 (stereo partly drawn),TGI,M19-MEL melanoma,> 56.5 µM
same,TGI,MALME-3M melanoma,35.5 µM
same,TGI,U251 CNS,13.2 µM
same,TGI,UACC-62 melanoma,32.7 µM
same,TGI,SK-MEL-28 melanoma,27.1 µM
same,TGI,EKVX NSCLC,37.3 µM
same,TGI,NCI-H522 lung,12.7 µM
same,TGI,SK-MEL-5 melanoma,35.6 µM
same,TGI,HOP-18 NSCLC,34.2 µM
same,GI50,DMS 114 small cell lung,6.42 µM
same,TGI,DMS 114 small cell lung,22 µM
same,TGI,HCC-2998 colon,33.5 µM
same,TGI,A498 renal,36 µM
same,TGI,NCI-H460 lung,38.1 µM
same,TGI,MOLT-4 leukemia,> 56.9 µM
same,TGI,CCRF-CEM leukemia,> 100 µM
same,TGI,DMS 273 small cell lung,> 58.5 µM
same,TGI,DLD-1 colon,14.6 µM
same,TGI,KM20L2 colon,36.6 µM
same,TGI,OVCAR-5 ovarian,33.9 µM
same,TGI,K-562 leukemia,> 87 µM
same,TGI,CAKI-1 renal,16.3 µM
same,TGI,SK-OV-3 ovarian,43.7 µM
same,TGI,SW-620 colon,17.6 µM
same,TGI,SK-MEL-2 melanoma,10.2 µM
same,TGI,SN12C renal,28.1 µM
same,TGI,SF-295 CNS,63.5 µM
same,TGI,TK-10 renal,18.3 µM
same,TGI,SF-268 CNS,28.7 µM
same,TGI,HOP-92 NSCLC,14.7 µM
same,TGI,KM12 colon,19.5 µM
same,TGI,SNB-78 CNS,> 61.4 µM
same,TGI,UO-31 renal,50.9 µM
same,TGI,HCT-15 colon,12.2 µM
same,TGI,SR leukemia,21 µM
same,TGI,SF-539 CNS,29.1 µM
same,TGI,786-0 renal,26.4 µM
same,TGI,HT29 colon,35.8 µM
same,TGI,HOP-62 NSCLC,27.9 µM
same,TGI,LOX IMVI melanoma,32.6 µM
same,TGI,ACHN renal,35.4 µM
same,TGI,NCI-H226 lung,38.4 µM
same,TGI,SNB-75 CNS,39.2 µM
same,TGI,OVCAR-4 ovarian,16.4 µM
same,TGI,RPMI-8226 leukemia,21.7 µM
same,TGI,COLO 205 colon,41.8 µM
same,TGI,OVCAR-8 ovarian,19.7 µM
same,TGI,IGROV1 ovarian,15.3 µM
same,TGI,LXFL 529 NSCLC,8.89 µM
same,TGI,UACC-257 melanoma,45.8 µM
same,TGI,HL-60(TB) leukemia,21 µM
same,TGI,M14 melanoma,20.4 µM
same,TGI,SNB-19 CNS,35.5 µM
same,TGI,NCI-H23 lung,27.6 µM
same,TGI,OVCAR-3 ovarian,21.8 µM
same,TGI,HCT-116 colon,36 µM
same,TGI,A549 NSCLC,54.4 µM

# From PubChem BioAssay (NCI)
